Experimental data: patent publication US10344034B2, “Pyrazolopyrimidone or Pyrrolotriazone derivatives, method of preparing same, and pharmaceutical applications thereof” (Shanghai Hengrui Pharmaceutical Co., Ltd., priority 2013, dated 2019)

Target: human GnRHr (Homo sapiens (Human), UniProt P30968)
Experiment: Human GnRHr (GnRH receptor) activity assay, Fluo-4 calcium signal in Human GnRHr/CHO stably transfected cell lines
Assay type: cell-based
Details: Human GnRHr/CHO cells, GnRH polypeptide stimulant
Protocol: Test Example 1. Human GnRHr (GnRH Receptor) Activity Assay of the Present Compounds.
In vitro GnRHr protein activity was tested by the following methods.
This assay was used to determine the inhibition effect of the present compound on the activity of human GnRHr protein expressed by Human GnRHr/CHO stably transfected cell lines.
A mammalian expression vector containing the human GnRHr gene was transferred into CHO cells by adding Lipofectamine® LTX reagent containing Plus™. Antibiotics were added the next day for screening to pick out the monoclonal cell lines.
The Human GnRHr/CHO stably transfected cell lines were inoculated in 96-well plates with an inoculation density of 25,000 cells/well. The culture medium was removed the next day, and loading buffer containing Fluo-4 dye was added to the plate (100 μL/well) and incubated for 30 minutes at 37° C. The plate was moved to room temperature and equilibrated for 10 minutes. Each compound was diluted with DMSO to seven concentration gradients of 100 μM, 10 μM, 1 μM, 0.1 μM, 0.01 μM, 0.001 μM, 0.0001 μM. Then, 1 μl of each gradient was added to each well and incubated for 10 minutes at room temperature. After automated addition of 50 μL of GnRH polypeptide stimulant solution, the value was immediately detected at 494/516 […] by a microplate reader (flexstation 3). IC50 values of the compounds were calculated by software from different fluorescence signals at various corresponding concentrations.
The inhibitory activity of the present compounds on human GnRHr was determined by the above assay, and IC50 values are shown in Table 1.

Chain of human GnRHr (P30968 whole entry): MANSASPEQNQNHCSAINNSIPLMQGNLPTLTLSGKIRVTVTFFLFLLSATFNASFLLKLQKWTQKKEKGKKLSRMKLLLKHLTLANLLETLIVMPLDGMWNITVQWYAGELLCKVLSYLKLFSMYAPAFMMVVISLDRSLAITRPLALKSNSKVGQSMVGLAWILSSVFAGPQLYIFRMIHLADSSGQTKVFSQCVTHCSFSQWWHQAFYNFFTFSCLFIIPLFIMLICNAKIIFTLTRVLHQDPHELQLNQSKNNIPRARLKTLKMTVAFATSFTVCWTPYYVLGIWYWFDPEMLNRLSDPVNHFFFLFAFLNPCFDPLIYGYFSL

CONC(=O)Nc1ccc(-n2nc3c(c2CN(C)C)c(=O)n(-c2ccc(OC)nn2)c(=O)n3Cc2c(F)cccc2F)cc1 [Example 11, 1-(4-(7-(2,6-difluorobenzyl)-3-((dimethylamino)methyl)-5-(6-methoxypyridazin-3-yl)-4,6-dioxo-4,5,6,7-tetrahydro-2H-pyrazolo[3,4-d]pyrimidin-2-yl)phenyl)-3-methoxyurea]
IC50: 4.95 nM
